Test results published in patent US9079902B2, “Heteroaryl sodium channel inhibitors” (AMGEN INC., priority 2011, dated 2015).
Where a name gives a salt, the structure may show the parent alone.

How the values were obtained:
[1] = target: Nav 1.5 (Homo sapiens (Human), UniProt Q14524); assay: Nav 1.5 in vitro assay (IonWorks Quattro population patch-clamp); type: cell-based; details: 293 cells stably transfected with Nav 1.5; 26th pulse to -20 mV, 5 Hz
Experimental: (§1) Nav 1.7 and Nav 1.5 In Vitro Assay
(§2) 293 cells stably transfected with either Nav 1.7 or with Nav 1.5 were recorded in population patch-clamp mode with the IonWorks® Quattro automated electrophysiology system in accordance with the manufacturer's specifications (Molecular Devices, LLC, Sunnyvale, Calif.). Sodium channel currents were measured in response to a train of depolarizations that induced successively greater inactivation.
(§3) Cells were held at −110 mV for three seconds (Nav 1.7) or half a second (Nav 1.5) from a holding voltage of −15 mV, then put through a series of 26 pulses of 150 msec duration to −20 mV at a frequency of 5 Hz. Cells were then left unclamped for a period of 3 to 8 minutes while a single concentration of test compound was added. Cells were then reclamped and put through the same voltage protocol. Current at the end of the 26th pulse to −20 mV was subtracted from the peak current evoked by the 26th pulse to −20 mV to correct for leak current. Percent block was calculated for each concentration in duplicate, and IC50 curves were fitted to percent block as a function of concentration.

[2] = target: Nav 1.7 (Homo sapiens (Human), UniProt Q15858); assay: Nav 1.7 in vitro assay (IonWorks Quattro population patch-clamp); type: cell-based; details: 293 cells stably transfected with Nav 1.7; for IC50: 26th pulse to -20 mV, 5 Hz; for inhibition at 4.9 µM: HEK293
Sequence of Nav 1.7 (Q15858 whole entry): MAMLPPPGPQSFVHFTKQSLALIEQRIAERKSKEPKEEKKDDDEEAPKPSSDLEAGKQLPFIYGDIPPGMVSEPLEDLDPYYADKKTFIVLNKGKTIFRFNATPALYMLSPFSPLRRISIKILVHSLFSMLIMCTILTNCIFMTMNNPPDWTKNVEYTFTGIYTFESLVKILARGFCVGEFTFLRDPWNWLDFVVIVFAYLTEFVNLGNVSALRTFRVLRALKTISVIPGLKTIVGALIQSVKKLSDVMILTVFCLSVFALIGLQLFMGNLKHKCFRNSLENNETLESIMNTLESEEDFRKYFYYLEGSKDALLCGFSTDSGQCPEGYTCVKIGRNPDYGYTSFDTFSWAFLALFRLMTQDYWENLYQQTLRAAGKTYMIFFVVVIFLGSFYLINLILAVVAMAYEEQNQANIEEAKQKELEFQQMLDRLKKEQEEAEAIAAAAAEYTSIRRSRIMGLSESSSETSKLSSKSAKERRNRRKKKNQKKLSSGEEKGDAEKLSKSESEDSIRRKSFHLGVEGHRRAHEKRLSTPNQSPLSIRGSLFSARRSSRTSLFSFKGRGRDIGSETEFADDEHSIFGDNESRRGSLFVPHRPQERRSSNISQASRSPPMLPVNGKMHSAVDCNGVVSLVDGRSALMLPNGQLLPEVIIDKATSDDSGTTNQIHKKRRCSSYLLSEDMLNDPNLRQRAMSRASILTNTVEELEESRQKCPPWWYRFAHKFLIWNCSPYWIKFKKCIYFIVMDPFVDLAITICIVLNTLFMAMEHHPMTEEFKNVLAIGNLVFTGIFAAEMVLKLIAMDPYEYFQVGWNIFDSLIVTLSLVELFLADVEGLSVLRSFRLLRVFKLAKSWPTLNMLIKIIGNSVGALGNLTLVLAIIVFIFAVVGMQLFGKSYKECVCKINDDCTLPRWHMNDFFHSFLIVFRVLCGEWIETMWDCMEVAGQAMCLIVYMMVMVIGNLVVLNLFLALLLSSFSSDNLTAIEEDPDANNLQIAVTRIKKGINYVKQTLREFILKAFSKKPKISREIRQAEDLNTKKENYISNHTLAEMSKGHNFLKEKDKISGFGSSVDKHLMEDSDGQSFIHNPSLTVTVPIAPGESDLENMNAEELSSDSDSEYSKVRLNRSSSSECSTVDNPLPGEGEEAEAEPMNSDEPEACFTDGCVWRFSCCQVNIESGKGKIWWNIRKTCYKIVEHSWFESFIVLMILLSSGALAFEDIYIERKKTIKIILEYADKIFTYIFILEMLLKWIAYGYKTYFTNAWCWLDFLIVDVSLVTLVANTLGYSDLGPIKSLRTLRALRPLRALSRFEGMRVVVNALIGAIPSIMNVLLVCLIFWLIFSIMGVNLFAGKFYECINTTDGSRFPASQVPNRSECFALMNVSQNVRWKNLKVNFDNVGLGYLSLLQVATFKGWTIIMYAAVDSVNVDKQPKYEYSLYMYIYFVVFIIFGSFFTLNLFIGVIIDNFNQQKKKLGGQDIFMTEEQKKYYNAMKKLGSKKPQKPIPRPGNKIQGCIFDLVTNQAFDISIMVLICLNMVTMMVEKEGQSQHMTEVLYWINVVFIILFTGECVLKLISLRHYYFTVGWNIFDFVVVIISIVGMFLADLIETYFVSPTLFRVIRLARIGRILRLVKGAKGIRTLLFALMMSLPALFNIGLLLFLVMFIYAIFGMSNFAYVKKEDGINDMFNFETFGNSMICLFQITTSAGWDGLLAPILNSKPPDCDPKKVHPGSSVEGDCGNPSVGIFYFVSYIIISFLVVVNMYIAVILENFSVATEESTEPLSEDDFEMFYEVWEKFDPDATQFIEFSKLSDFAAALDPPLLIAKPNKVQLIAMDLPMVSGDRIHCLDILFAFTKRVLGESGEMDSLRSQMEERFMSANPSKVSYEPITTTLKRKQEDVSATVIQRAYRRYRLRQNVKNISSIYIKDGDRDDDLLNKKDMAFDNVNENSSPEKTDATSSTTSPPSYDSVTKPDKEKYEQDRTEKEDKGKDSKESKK
Experimental: as §1, §2, §3

Sequence of Nav 1.5 (Q14524 whole entry): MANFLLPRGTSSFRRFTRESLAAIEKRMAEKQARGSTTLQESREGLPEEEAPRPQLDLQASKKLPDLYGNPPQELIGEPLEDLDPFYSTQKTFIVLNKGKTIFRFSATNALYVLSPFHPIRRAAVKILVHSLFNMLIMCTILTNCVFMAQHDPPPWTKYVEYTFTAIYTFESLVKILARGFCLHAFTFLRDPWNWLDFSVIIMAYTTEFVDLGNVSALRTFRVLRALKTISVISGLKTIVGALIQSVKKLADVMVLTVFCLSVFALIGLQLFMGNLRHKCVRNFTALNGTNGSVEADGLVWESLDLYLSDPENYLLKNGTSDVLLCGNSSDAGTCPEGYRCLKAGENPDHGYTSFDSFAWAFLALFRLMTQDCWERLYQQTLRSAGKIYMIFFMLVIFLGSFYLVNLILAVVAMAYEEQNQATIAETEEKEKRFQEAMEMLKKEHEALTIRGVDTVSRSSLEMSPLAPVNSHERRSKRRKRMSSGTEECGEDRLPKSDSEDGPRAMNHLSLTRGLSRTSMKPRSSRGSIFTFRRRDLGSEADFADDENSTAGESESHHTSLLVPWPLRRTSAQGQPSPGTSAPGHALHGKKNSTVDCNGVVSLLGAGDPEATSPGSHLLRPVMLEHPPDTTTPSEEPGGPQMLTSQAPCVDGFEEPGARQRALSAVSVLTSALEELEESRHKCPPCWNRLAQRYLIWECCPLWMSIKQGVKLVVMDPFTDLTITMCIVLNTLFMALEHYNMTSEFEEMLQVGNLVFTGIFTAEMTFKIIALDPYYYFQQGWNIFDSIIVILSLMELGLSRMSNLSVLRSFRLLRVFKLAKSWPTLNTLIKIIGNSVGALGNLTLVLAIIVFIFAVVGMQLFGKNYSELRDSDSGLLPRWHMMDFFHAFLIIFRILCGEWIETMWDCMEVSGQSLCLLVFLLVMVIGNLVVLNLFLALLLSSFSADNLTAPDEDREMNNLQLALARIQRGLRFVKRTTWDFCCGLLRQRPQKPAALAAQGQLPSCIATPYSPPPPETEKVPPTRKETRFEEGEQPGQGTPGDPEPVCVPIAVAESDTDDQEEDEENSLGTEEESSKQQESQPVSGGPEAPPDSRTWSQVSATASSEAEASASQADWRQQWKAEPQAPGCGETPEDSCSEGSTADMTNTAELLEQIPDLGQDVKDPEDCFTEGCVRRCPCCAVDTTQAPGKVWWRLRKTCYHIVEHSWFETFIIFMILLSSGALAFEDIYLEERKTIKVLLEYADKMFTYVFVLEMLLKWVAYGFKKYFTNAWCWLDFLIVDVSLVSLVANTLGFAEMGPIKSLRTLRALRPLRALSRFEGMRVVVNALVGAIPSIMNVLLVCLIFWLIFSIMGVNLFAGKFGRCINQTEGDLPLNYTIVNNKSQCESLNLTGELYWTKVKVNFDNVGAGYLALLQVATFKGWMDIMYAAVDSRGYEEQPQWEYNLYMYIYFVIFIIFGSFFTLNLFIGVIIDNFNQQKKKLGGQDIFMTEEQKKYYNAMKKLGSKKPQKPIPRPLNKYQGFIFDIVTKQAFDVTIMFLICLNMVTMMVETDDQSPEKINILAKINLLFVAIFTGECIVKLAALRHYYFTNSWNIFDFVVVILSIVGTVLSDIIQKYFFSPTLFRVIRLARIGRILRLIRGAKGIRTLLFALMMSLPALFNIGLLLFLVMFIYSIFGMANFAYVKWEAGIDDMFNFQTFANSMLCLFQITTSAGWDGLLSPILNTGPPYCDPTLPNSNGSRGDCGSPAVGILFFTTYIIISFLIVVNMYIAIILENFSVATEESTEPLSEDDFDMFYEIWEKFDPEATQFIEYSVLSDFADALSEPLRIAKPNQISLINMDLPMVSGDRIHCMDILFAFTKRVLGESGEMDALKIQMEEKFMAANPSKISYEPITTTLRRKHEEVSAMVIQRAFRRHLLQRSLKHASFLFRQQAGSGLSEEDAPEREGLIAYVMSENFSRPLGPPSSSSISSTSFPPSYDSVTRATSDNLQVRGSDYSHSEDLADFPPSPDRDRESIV

IC50 [2] [µM]	inhibition at 4.9 µM [2] [%]	Compound	IC50 [1] [µM]
0.835	–	Cn1nccc1-c1cc(C(F)(F)F)ccc1-c1cn(C)c2cc(S(=O)(=O)Nc3ccncn3)ccc12 [Example 12, 1-Methyl-3-(2-(1-Methyl-1H-Pyrazol-5-yl)-4-(Trifluoromethyl)Phenyl)-N-(Pyrimidin-4-yl)-1H-Indole-6-Sulfonamide]	> 10
1.54	–	Cn1cc(-c2cc(-c3ccncc3)cc(C(F)(F)F)c2)c2ccc(S(=O)(=O)Nc3ncns3)cc21 [Example 15, 1-Methyl-3-(3-(Pyridin-4-yl)-5-(Trifluoromethyl)Phenyl)-N-(1,2,4-Thiadiazol-5-yl)-1H-Indole-6-Sulfonamide]	> 10
3.29	–	CC#Cc1cncc(-c2cn(C)c3cc(S(=O)(=O)Nc4ncns4)ccc23)c1 [Example 14, 1-Methyl-3-(5-(Prop-1-Yn-1-yl)Pyridin-3-yl)-N-(1,2,4-Thiadiazol-5-yl)-1H-Indole-6-Sulfonamide]	> 10
0.724	–	Cn1nccc1-c1cc(C(F)(F)F)ccc1-c1c[nH]c2cc(S(=O)(=O)Nc3ncns3)ccc12 [Example 5, 3-(2-(1-Methyl-1H-Pyrazol-5-yl)-4-(Trifluoromethyl)Phenyl)-N-(1,2,4-Thiadiazol-5-yl)-1H-Indole-6-Sulfonamide]	> 10
1.93	–	CC(C)n1cc(-c2ccc(C(F)(F)F)cc2-c2ccnn2C)c2ccc(S(=O)(=O)Nc3ncns3)cc21 [Example 3, 1-Isopropyl-3-(2-(1-Methyl-1H-Pyrazol-5-yl)-4-(Trifluoromethyl)Phenyl)-N-(1,2,4-Thiadiazol-5-yl)-1H-Indole-6-Sulfonamide]	> 10
0.0505	–	CC(=O)n1cc(-c2ccc(C(F)(F)F)cc2-c2ccnn2C)c2ccc(S(=O)(=O)Nc3ncns3)cc21 [Example 4, 1-Acetyl-3-(2-(1-Methyl-1H-Pyrazol-5-yl)-4-(Trifluoromethyl)Phenyl)-N-(1,2,4-Thiadiazol-5-yl)-1H-Indole-6-Sulfonamide]	> 10
0.532	–	Cn1nccc1-c1cc(C(F)(F)F)ccc1-c1cn(S(C)(=O)=O)c2cc(S(=O)(=O)Nc3ncns3)ccc12 [Example 7, 3-(2-(1-Methyl-1H-Pyrazol-5-yl)-4-(Trifluoromethyl)Phenyl)-1-(Methylsulfonyl)-N-(1,2,4-Thiadiazol-5-yl)-1H-Indole-6-Sulfonamide]	> 10
1.38	–	Cn1nccc1-c1cc(C(F)(F)F)ccc1-c1cn(C)c2cc(S(=O)(=O)Nc3nc(Br)ns3)ccc12 [Example 50, N-(3-Bromo-1,2,4-Thiadiazol-5-Yl)-1-Methyl-3-(2-(1-Methyl-1H-Pyrazol-5-Yl)-4-(Trifluoromethyl)Phenyl)-1H-Indole-6-Sulfonamide]	> 10
–	37.2	COc1ccc(-c2cn(C)c3cc(S(=O)(=O)Nc4ncns4)ccc23)cn1 [Example 61, 3-(6-Methoxypyridin-3-Yl)-1-Methyl-N-(1,2,4-Thiadiazol-5-Yl)-1H-Indole-6-Sulfonamide]	> 10
–	36.2	Cc1sc(NS(=O)(=O)c2ccc3c(-c4ccc(C(F)(F)F)cc4-c4ccnn4C)cn(C)c3c2)nc1C(F)(F)F [Example 20, 1-Methyl-3-(2-(1-Methyl-1H-Pyrazol-5-yl)-4-(Trifluoromethyl)Phenyl)-N-(5-Methyl-4-(Trifluoromethyl)Thiazol-2-yl)-1H-Indole-6-Sulfonamide]	> 10
0.147	–	Cn1nccc1-c1cc(C(F)(F)F)ccc1-c1cn(C)c2cc(S(=O)(=O)Nc3ncns3)ccc12 [Example 8, 1-Methyl-3-(2-(1-Methyl-1H-Pyrazol-5-yl)-4-(Trifluoromethyl)Phenyl)-N-(1,2,4-Thiadiazol-5-yl)-1H-Indole-6-Sulfonamide]	> 10
8.53	–	Cn1cc(-c2ccncc2Cl)c2ccc(S(=O)(=O)Nc3ncns3)cc21 [Example 51, 3-(3-Chloropyridin-4-Yl)-1-Methyl-N-(1,2,4-Thiadiazol-5-Yl)-1H-Indole-6-Sulfonamide]	> 10
2.13	–	Cn1cc(-c2cc(F)ccc2F)c2ccc(S(=O)(=O)Nc3ncns3)cc21 [Example 10, 3-(2,5-Difluorophenyl)-1-Methyl-N-(1,2,4-Thiadiazol-5-yl)-1H-Indole-6-Sulfonamide]	> 10
–	20.8	COc1cc(-c2cn(C)c3cc(S(=O)(=O)Nc4ncns4)ccc23)c(F)cn1 [Example 56, 3-(5-Fluoro-2-Methoxypyridin-4-Yl)-1-Methyl-N-(1,2,4-Thiadiazol-5-Yl)-1H-Indole-6-Sulfonamide]	> 10
3.19	–	Cn1nccc1-c1cc(C(F)(F)F)ccc1-c1cn(C)c2cc(S(=O)(=O)Nc3nccs3)ccc12 [Example 11, 1-Methyl-3-(2-(1-Methyl-1H-Pyrazol-5-yl)-4-(Trifluoromethyl)Phenyl)-N-(Thiazol-2-yl)-1H-Indole-6-Sulfonamide]	> 10
–	24.7	COc1ccc(-c2cn(C)c3cc(S(=O)(=O)Nc4ncns4)ccc23)cc1C#N [Example 60, 3-(3-Cyano-4-Methoxyphenyl)-1-Methyl-N-(1,2,4-Thiadiazol-5-Yl)-1H-Indole-6-Sulfonamide]	> 10
–	25.1	Cn1cc(-c2ccccc2OC(F)(F)F)c2ccc(S(=O)(=O)Nc3ncns3)cc21 [Example 58, 1-Methyl-N-(1,2,4-Thiadiazol-5-Yl)-3-(2-(Trifluoromethoxy)Phenyl)-1H-Indole-6-Sulfonamide]	> 10
0.0375	–	Cn1cc(-c2ccc(C(F)(F)F)cc2-c2cn[nH]c2)c2ccc(S(=O)(=O)Nc3ncns3)cc21 [Example 21, 3-(2-(1H-Pyrazol-4-yl)-4-(Trifluoromethyl)Phenyl)-1-Methyl-N-(1,2,4-Thiadiazol-5-yl)-1H-Indole-6-Sulfonamide]	> 10
1.02	–	Cn1nccc1-c1cc(C(F)(F)F)ccc1-c1cn(C)c2nc(S(=O)(=O)Nc3ncns3)ccc12 [Example 26, 1-Methyl-3-(2-(1-Methyl-1H-Pyrazol-5-yl)-4-(Trifluoromethyl)Phenyl)-N-(1,2,4-Thiadiazol-5-yl)-1H-Pyrrolo [2,3-B]Pyridine-6-Sulfonamide]	> 10
1.7	–	Cn1cc(-c2cccnc2)c2ccc(S(=O)(=O)Nc3ncns3)cc21 [Example 9, 1-Methyl-3-(Pyridin-3-yl)-N-(1,2,4-Thiadiazol-5-yl)-1H-Indole-6-Sulfonamide]	> 10
1.86	–	Cn1nccc1-c1cc(C(F)(F)F)ccc1-c1cn(C)c2cc(S(=O)(=O)Nc3nncs3)ccc12 [Example 13, 1-Methyl-3-(2-(1-Methyl-1H-Pyrazol-5-yl)-4-(Trifluoromethyl)Phenyl)-N-(1,3,4-Thiadiazol-2-yl)-1H-Indole-6-Sulfonamide]	> 10
0.445	–	Cn1nccc1-c1cc(Cl)ccc1-c1c[nH]c2cc(S(=O)(=O)Nc3ncns3)ccc12 [Example 1, 3-(4-Chloro-2-(1-Methyl-1H-Pyrazol-5-yl)Phenyl)-N-(1,2,4-Thiadiazol-5-yl)-1H-Indole-6-Sulfonamide]	> 10
0.0425	–	Cn1cc(-c2ccc(C(F)(F)F)cc2C2=CCNCC2)c2ccc(S(=O)(=O)Nc3ncns3)cc21 [Example 22, 1-Methyl-3-(2-(1,2,3,6-Tetrahydropyridin-4-yl)-4-(Trifluoromethyl)Phenyl)-N-(1,2,4-Thiadiazol-5-yl)-1H-Indole-6-Sulfonamide]	> 10
6.7	–	Cn1nccc1-c1cc(C(F)(F)F)ccc1-c1c[nH]c2nc(S(=O)(=O)Nc3ncns3)ccc12 [Example 25, 3-(2-(1-Methyl-1H-Pyrazol-5-yl)-4-(Trifluoromethyl)Phenyl)-N-(1,2,4-Thiadiazol-5-yl)-1H-Pyrrolo[2,3-B]Pyridine-6-Sulfonamide]	8.55
0.687	–	Cn1cc(-c2ccc(C(F)(F)F)cc2Cl)c2ccc(S(=O)(=O)Nc3ncns3)cc21 [Example 23, 3-(2-Chloro-4-(Trifluoromethyl)Phenyl)-1-Methyl-N-(1,2,4-Thiadiazol-5-yl)-1H-Indole-6-Sulfonamide]	> 10
0.674	–	CC(=O)n1cc(-c2ccc(C(F)(F)F)cc2-c2ccnn2C)c2ccc(S(=O)(=O)Nc3ncns3)nc21 [Example 27, 1-Acetyl-3-(2-(1-Methyl-1H-Pyrazol-5-yl)-4-(Trifluoromethyl)Phenyl)-N-(1,2,4-Thiadiazol-5-yl)-1H-Pyrrolo [2,3-B]Pyridine-6-Sulfonamide]	> 10
–	36.2	Cn1cc(-c2cc3ccccc3o2)c2ccc(S(=O)(=O)Nc3ncns3)cc21 [Example 59, 3-(Benzofuran-2-Yl)-1-Methyl-N-(1,2,4-Thiadiazol-5-Yl)-1H-Indole-6-Sulfonamide]	> 10
0.292	–	Cn1cc(-c2cccc3c2CCNC3)c2ccc(S(=O)(=O)Nc3ncns3)cc21 [Example 53, 1-Methyl-3-(1,2,3,4-Tetrahydroisoquinolin-5-Yl)-N-(1,2,4-Thiadiazol-5-Yl)-1H-Indole-6-Sulfonamide Hydrochloride]	> 10

Compound	IC50 [2] [µM]	inhibition at 4.9 µM [2] [%]	IC50 [1] [µM]
Cn1cc(-c2cccc3c2CNCC3)c2ccc(S(=O)(=O)Nc3ncns3)cc21 [Example 54, 1-Methyl-3-(1,2,3,4-Tetrahydroisoquinolin-8-Yl)-N-(1,2,4-Thiadiazol-5-Yl)-1H-Indole-6-Sulfonamide Hydrochloride]	1.63	–	> 10
